Drawing on US7928107B2, “Quinazolines useful as modulators of ion channels” (Vertex Pharmaceuticals Incorporated, priority 2004, dated 2011), this text covers IC50 for 41 molecules.

The term IC50 denotes the concentration that inhibits the measured activity by half.

Where only a bound is given, the exact number is not on record here.

Sequence of NaV 1.8 channel (Q9Y5Y9 whole entry): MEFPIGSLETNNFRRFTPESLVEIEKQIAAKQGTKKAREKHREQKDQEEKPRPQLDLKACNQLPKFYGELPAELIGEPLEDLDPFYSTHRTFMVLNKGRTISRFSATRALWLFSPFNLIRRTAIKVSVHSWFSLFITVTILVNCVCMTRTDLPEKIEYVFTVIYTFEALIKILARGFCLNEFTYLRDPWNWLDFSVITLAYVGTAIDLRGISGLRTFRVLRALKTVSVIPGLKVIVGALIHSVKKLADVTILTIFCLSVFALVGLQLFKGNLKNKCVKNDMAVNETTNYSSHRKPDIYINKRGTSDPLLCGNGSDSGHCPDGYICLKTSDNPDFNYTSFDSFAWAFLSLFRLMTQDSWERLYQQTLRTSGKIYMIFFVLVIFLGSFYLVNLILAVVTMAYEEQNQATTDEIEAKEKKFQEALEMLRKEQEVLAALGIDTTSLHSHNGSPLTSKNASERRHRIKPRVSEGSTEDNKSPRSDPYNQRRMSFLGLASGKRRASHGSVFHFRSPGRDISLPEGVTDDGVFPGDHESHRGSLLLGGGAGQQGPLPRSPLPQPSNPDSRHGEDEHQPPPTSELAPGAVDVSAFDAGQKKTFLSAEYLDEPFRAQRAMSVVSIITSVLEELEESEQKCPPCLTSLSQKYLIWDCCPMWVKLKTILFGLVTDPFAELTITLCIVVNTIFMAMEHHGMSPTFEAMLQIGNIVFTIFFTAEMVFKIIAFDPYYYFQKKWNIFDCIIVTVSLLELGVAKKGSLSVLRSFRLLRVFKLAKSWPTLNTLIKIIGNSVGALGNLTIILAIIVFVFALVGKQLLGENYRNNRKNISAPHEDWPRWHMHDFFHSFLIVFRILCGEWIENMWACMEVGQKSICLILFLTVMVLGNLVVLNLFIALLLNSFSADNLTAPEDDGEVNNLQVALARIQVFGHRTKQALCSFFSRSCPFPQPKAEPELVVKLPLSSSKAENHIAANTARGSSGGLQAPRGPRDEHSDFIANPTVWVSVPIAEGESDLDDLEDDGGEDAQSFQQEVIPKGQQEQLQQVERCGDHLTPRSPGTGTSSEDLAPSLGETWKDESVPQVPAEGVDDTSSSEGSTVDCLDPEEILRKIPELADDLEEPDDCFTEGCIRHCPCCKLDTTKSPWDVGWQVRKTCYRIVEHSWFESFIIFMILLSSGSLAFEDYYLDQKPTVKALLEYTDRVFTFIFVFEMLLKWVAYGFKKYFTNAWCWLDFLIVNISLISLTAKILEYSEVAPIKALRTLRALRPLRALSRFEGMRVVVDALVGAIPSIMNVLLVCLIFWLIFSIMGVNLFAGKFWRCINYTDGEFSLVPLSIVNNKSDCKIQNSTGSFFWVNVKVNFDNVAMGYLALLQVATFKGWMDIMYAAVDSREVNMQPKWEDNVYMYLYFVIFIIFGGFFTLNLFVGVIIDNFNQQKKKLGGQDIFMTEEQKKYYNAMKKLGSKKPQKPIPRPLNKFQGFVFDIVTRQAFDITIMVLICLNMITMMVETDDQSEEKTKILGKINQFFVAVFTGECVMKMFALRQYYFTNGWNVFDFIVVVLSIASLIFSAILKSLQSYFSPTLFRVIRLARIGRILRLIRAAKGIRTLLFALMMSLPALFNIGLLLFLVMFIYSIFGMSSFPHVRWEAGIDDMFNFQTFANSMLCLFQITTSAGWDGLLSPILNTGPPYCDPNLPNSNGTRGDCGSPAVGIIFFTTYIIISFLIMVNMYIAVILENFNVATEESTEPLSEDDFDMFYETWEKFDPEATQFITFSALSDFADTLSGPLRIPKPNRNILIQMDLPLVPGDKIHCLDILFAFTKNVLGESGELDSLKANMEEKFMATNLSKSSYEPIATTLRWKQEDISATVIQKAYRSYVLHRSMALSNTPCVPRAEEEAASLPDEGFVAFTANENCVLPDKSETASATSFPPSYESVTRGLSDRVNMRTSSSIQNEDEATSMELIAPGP

This assay concerns the target NaV 1.8 channel (Homo sapiens, UniProt Q9Y5Y9). Briefly: Activity against NaV 1.8 channel (optical membrane potential assay). The class given is cell-based. In short, it runs like this: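 Cells expressing the NaV of interest loaded with CC2-DMPE (30 min, room temperature) then DiSBAC2(3) with ABSCl and veratridine; compound incubated 20–30 min. Depolarization triggered by sodium add-back and read on VIPR as 460/580 nm FRET ratio (Rf/Ri), normalized to tetracaine and untreated controls.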
Consider `Cc1ccc2c(N3CCC[C@@H](CNC(=O)OC(C)C)C3)nc(-c3ccccc3O)nc2c1` [Example 255, Isopropyl ((S)-1-(2-(2-hydroxyphenyl)-7-methylquinazolin-4-yl)piperidin-3-yl)methylcarbamate], for which the IC50 is above 10 µM.
The value for `CCCOC(=O)NC[C@@H]1CCCN(c2nc(-c3ccccc3O)nc3cc(C)ccc23)C1` [Example 256, Propyl ((S)-1-(2-(2-hydroxyphenyl)-7-methylquinazolin-4-yl)piperidin-3-yl)methylcarbamate] was 2 to 10 µM; that for `COCCOC(=O)NC[C@@H]1CCCN(c2nc(-c3ccccc3O)nc3cc(C)ccc23)C1` [Example 257, 2-Methoxyethyl ((S)-1-(2-(2-hydroxyphenyl)-7-methylquinazolin-4-yl)piperidin-3-yl)methylcarbamate] was 2 to 10 µM.
The value for `COCCOC(=O)NC1CCN(c2nc(-c3ccccc3O)nc3ccc(F)cc23)CC1` [Example 258, 2-Methoxyethyl 1-(6-fluoro-2-(2-hydroxyphenyl)quinazolin-4-yl)piperidin-4-ylcarbamate] was below 2 µM; that for `Cc1ccc2c(N3CCC(NC(=O)OC(C)(C)C)CC3)nc(-c3ccccc3O)nc2c1` [Example 259, {1-[2-(2-Hydroxy-phenyl)-7-methyl-quinazolin-4-yl]-piperidin-4-yl}-carbamic acid tert-butyl ester] was below 2 µM; that for `Cc1ccc2c(N3CCC[C@@H](CNC(=O)OCC(C)C)C3)nc(-c3c(O)cccc3F)nc2c1` [Example 260, Isobutyl ((S)-1-(2-(2-fluoro-6-hydroxyphenyl)-7-methylquinazolin-4-yl)piperidin-3-yl)methylcarbamate] was below 2 µM.
As for `COCCOC(=O)NC[C@@H]1CCCN(c2nc(-c3c(O)cccc3F)nc3cc(C)ccc23)C1` [Example 261, 2-Methoxyethyl ((S)-1-(2-(2-fluoro-6-hydroxyphenyl)-7-methylquinazolin-4-yl)piperidin-3-yl)methylcarbamate], the IC50 lay in the range of 2 to 10 µM.
The figure for `CCOC(=O)NC[C@@H]1CCCN(c2nc(-c3c(O)cccc3F)nc3cc(C)ccc23)C1` [Example 262, Ethyl ((S)-1-(2-(2-fluoro-6-hydroxyphenyl)-7-methylquinazolin-4-yl)piperidin-3-yl)methylcarbamate] is 2 to 10 µM; for `Cc1ccc2c(N3CCC(NC(=O)C(O)C(C)C)CC3)nc(-c3ccccc3O)nc2c1` (centres unmarked) [Example 264] it is above 10 µM.
With `Cc1ccc2c(N3CCC(NC(=O)C(O)CC(C)C)CC3)nc(-c3ccccc3O)nc2c1` (centres unmarked) [Example 265], the IC50 is above 10 µM.
The value for `Cc1ccc2c(N3CCC(CNC(=O)C(O)C(C)C)CC3)nc(-c3ccccc3O)nc2c1` (centres unmarked) [Example 266] was 2 to 10 µM; that for `Cc1ccc2c(N3CCC(NC(=O)[C@H](O)CC(C)C)CC3)nc(-c3ccccc3O)nc2c1` [Example 267] was above 10 µM.
The value for `Cc1ccc2c(N3CCC(NC(=O)[C@@H](O)CC(C)C)CC3)nc(-c3ccccc3O)nc2c1` [Example 268] was above 10 µM; that for `Cc1ccc2c(N3CCC(CNC(=O)[C@H](O)C(C)C)CC3)nc(-c3ccccc3O)nc2c1` [Example 269] was above 10 µM.
The figure for `Cc1ccc2c(N3CCN(C(=O)C(O)CC(C)C)CC3)nc(-c3ccccc3O)nc2c1` (centres unmarked) [Example 270] is 2 to 10 µM.
For `Cc1ccc2c(N3CCC(C(=O)NCC4CCCO4)CC3)nc(-c3ccccc3O)nc2c1` (centres unmarked) [Example 271], the IC50 is above 10 µM.
The figure for `Cc1ccc2c(N3CCC(NC(=O)O[C@@H]4CCOC4)CC3)nc(-c3ccccc3O)nc2c1` [Example 272] is 2 to 10 µM; for `Cc1ccc2c(N3CCC(NC(=O)OCC4CCCO4)CC3)nc(-c3ccccc3O)nc2c1` (centres unmarked) [Example 274] it is 2 to 10 µM; for `Cc1ccc2c(N3CCC(NC(=O)OCC4CCOC4)CC3)nc(-c3ccccc3O)nc2c1` (centres unmarked) [Example 275] it is 2 to 10 µM.
The value for `Cc1ccc2c(N3CCC(NC(=O)[C@H]4CCCO4)CC3)nc(-c3ccccc3O)nc2c1` [Example 276, (R)-Tetrahydro-furan-2-carboxylic acid {1-[2-(2-hydroxy-phenyl)-7-methyl-quinazolin-4-yl]-piperidin-4-yl}-amide] was 2 to 10 µM; that for `Cc1ccc2c(N3CCC(NC(=O)[C@@H]4CCCO4)CC3)nc(-c3ccccc3O)nc2c1` [Example 277] was 2 to 10 µM; that for `Cc1ccc2c(N3CCC(CNC(=O)OCC(C)C)CC3)nc(-c3ccccc3O)nc2c1` [Example 278] was above 10 µM.
The figure for `Cc1ccc2c(N3CCC(CNC(=O)OC(C)C)CC3)nc(-c3ccccc3O)nc2c1` [Example 279] is 2 to 10 µM.
As to `Cc1ccc2c(N3CCC(NC(=O)O[C@@H]4CO[C@H]5OCC[C@H]54)CC3)nc(-c3ccccc3O)nc2c1` [Example 280], the IC50 was 2 to 10 µM.
The figure for `Cc1ccc2c(N3CCC[C@@H](CNC(=O)O[C@H]4CO[C@@H]5OCC[C@@H]54)C3)nc(-c3ccccc3O)nc2c1` [Example 281] is 2 to 10 µM.
The figure for `Cc1ccc2c(N3CCC[C@@H](NC(=O)OCC(C)C)C3)nc(-c3ccccc3O)nc2c1` [Example 282] is below 2 µM; for `Cc1ccc2c(N3CCC(NC(=O)[C@H]4CCCO4)CC3)nc(-c3ccccc3O)nc2c1` [Example 283] it is below 2 µM; for `Cc1ccc2c(N3CC[C@@H](NC(=O)O[C@H]4CCOC4)C3)nc(-c3ccccc3O)nc2c1` [Example 301, (S)-Tetrahydrofuran-3-yl (R)-1-(2-(2-hydroxyphenyl)-7-methylquinazolin-4-yl)pyrrolidin-3-ylcarbamate] it is 2 to 10 µM.
As for `Cc1ccc2c(N3CC[C@@H](NC(=O)[C@H]4CCCO4)C3)nc(-c3ccccc3O)nc2c1` [Example 302, (R,R)-Tetrahydro-furan-2-carboxylic acid {1-[2-(2-hydroxy-phenyl)-7-methyl-quinazolin-4-yl]-pyrrolidin-3-yl}-amide], the IC50 is above 10 µM.
The value for `Cc1ccc2c(N3CC[C@H](NC(=O)O[C@H]4CCOC4)C3)nc(-c3ccccc3O)nc2c1` [Example 304, (S,S)-{1-[2-(2-Hydroxy-phenyl)-7-methyl-quinazolin-4-yl]-pyrrolidin-3-yl}-carbamic acid tetrahydro-furan-3-yl ester] was above 10 µM; that for `Cc1ccc2c(N3CC[C@@H](CNC(=O)O[C@H]4CCOC4)C3)nc(-c3ccccc3O)nc2c1` [Example 305, (S)-Tetrahydrofuran-3-yl ((S)-1-(2-(2-hydroxyphenyl)-7-methylquinazolin-4-yl)pyrrolidin-3-yl)methylcarbamate] was 2 to 10 µM.
For the molecule `Cc1ccc2c(N3CC[C@H](CNC(=O)O[C@@H]4CCOC4)C3)nc(-c3ccccc3O)nc2c1` [Example 306, (R)-Tetrahydrofuran-3-yl ((R)-1-(2-(2-hydroxyphenyl)-7-methylquinazolin-4-yl)pyrrolidin-3-yl)methylcarbamate], the IC50 is above 10 µM.
On to `Cc1ccc2c(N3CC[C@H](CNC(=O)O[C@H]4CCOC4)C3)nc(-c3ccccc3O)nc2c1` [Example 307, (S)-Tetrahydrofuran-3-yl ((R)-1-(2-(2-hydroxyphenyl)-7-methylquinazolin-4-yl)pyrrolidin-3-yl)methylcarbamate], for which the IC50 is above 10 µM.
With `Cc1ccc2c(N3CC[C@H](CNC(=O)[C@H]4CCCO4)C3)nc(-c3ccccc3O)nc2c1` [Example 308, (2R)-Tetrahydro-N—(((R)-1-(2-(2-hydroxyphenyl)-7-methylquinazolin-4-yl)pyrrolidin-3-yl)methyl)furan-2-carboxamide], the IC50 is above 10 µM.
As for `Cc1ccc2c(N3CC[C@@H](NC(=O)OCc4ccccc4)C3)nc(-c3ccccc3O)nc2c1` [Example 309, (R)-{1-[2-(2-Hydroxy-phenyl)-7-methyl-quinazolin-4-yl]-pyrrolidin-3-yl}-carbamic acid benzyl ester], the IC50 was below 2 µM.
The figure for `Cc1ccc2c(N3CC[C@@H](CNC(=O)[C@H]4CCCO4)C3)nc(-c3ccccc3O)nc2c1` [Example 310, (2R)-Tetrahydro-N—(((S)-1-(2-(2-hydroxyphenyl)-7-methylquinazolin-4-yl)pyrrolidin-3-yl)methyl)furan-2-carboxamide] is 2 to 10 µM; for `Cc1ccc2c(N3CC[C@@H](CNC(=O)C4CC4)C3)nc(-c3ccccc3O)nc2c1` [Example 311, N—(((S)-1-(2-(2-Hydroxyphenyl)-7-methylquinazolin-4-yl)pyrrolidin-3-yl)methyl)cyclopropanecarboxamide] it is below 2 µM; for `Cc1ccc2c(N3CC[C@@H](NC(=O)C4CC4)C3)nc(-c3ccccc3O)nc2c1` [Example 312, (R)-Cyclopropanecarboxylic acid {1-[2-(2-hydroxy-phenyl)-7-methyl-quinazolin-4-yl]-pyrrolidin-3-yl}-amide] it is 2 to 10 µM.
In the case of `Cc1ccc2c(N3CC[C@@H](NC(=O)OCC4CCCCO4)C3)nc(-c3ccccc3O)nc2c1` (stereo partly drawn) [Example 314, (Tetrahydro-2H-pyran-2-yl)methyl (R)-1-(2-(2-hydroxyphenyl)-7-methylquinazolin-4-yl)pyrrolidin-3-ylcarbamate], the IC50 lay in the range of 2 to 10 µM.
The value for `Cc1ccc2c(N3CC[C@@H](NC(=O)C4CCC(=O)N4)C3)nc(-c3ccccc3O)nc2c1` (stereo partly drawn) [Example 315, (R)-5-Oxo-pyrrolidine-2-carboxylic acid {1-[2-(2-hydroxy-phenyl)-7-methyl-quinazolin-4-yl]-pyrrolidin-3-yl}-amide] was above 10 µM.
With `Cc1ccc2c(N3CC[C@@H](NC(=O)C4CCOCC4)C3)nc(-c3ccccc3O)nc2c1` [Example 316, Tetrahydro-N—((R)-1-(2-(2-hydroxyphenyl)-7-methylquinazolin-4-yl)pyrrolidin-3-yl)-2H-pyran-4-carboxamide], the IC50 is above 10 µM.
